Source: the supplement of paper PMC10307832

What was measured:
Assay in all cases: relative viability (nuclei count vs DMSO), 5 days (fraction); higher = more cells survive
Dovitinib + OSI-027 = compound: CN1CCN(c2ccc3nc(-c4c(N)c5c(F)cccc5[nH]c4=O)[nH]c3c2)CC1 [Dovitinib] + COc1cccc2cc(-c3nc([C@H]4CC[C@H](C(=O)O)CC4)n4ncnc(N)c34)[nH]c12 [OSI-027] (partner 0.5 µM)
How it was run: (§1)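 Relative viability divides the nuclei count in treated wells by that in vehicle wells. Lung cancer cell lines were seeded in 1536-well plates, dosed by pin tool the next day, and fixed and stained after 5 days in one step with final 0.05% Triton X-100, 1% formaldehyde and 1 ug/ml Hoechst. Dosing was a single drug or a fixed anchor-drug dose plus five library-drug doses (not always all listed) in √10 steps, and values are medians of duplicate plates imaged at 4×.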

Dovitinib + Luminespib = compound: CN1CCN(c2ccc3nc(-c4c(N)c5c(F)cccc5[nH]c4=O)[nH]c3c2)CC1 [Dovitinib] + CCNC(=O)c1noc(-c2cc(C(C)C)c(O)cc2O)c1-c1ccc(CN2CCOCC2)cc1 [Luminespib] (partner 0.01 µM)
How it was run: as §1

Dovitinib + Linsitinib = compound: CN1CCN(c2ccc3nc(-c4c(N)c5c(F)cccc5[nH]c4=O)[nH]c3c2)CC1 [Dovitinib] + C[C@]1(O)C[C@@H](c2nc(-c3ccc4ccc(-c5ccccc5)nc4c3)c3c(N)nccn32)C1 [Linsitinib] (partner 1 µM)
How it was run: as §1

Dovitinib + Lapatinib = compound: CN1CCN(c2ccc3nc(-c4c(N)c5c(F)cccc5[nH]c4=O)[nH]c3c2)CC1 [Dovitinib] + CS(=O)(=O)CCNCc1ccc(-c2ccc3ncnc(Nc4ccc(OCc5cccc(F)c5)c(Cl)c4)c3c2)o1 [Lapatinib] (partner 2 µM)
How it was run: as §1

Cell Line	relative viability (Dovitinib + OSI-027; first compound 0.02 µM)	relative viability (Dovitinib + OSI-027; first compound 0.06325 µM)	relative viability (Dovitinib + OSI-027; first compound 0.2 µM)	relative viability (Dovitinib + OSI-027; first compound 0.6325 µM)	relative viability (Dovitinib + OSI-027; first compound 2 µM)	relative viability (Dovitinib + Luminespib; first compound 0.02 µM)	relative viability (Dovitinib + Luminespib; first compound 0.06325 µM)	relative viability (Dovitinib + Luminespib; first compound 0.2 µM)	relative viability (Dovitinib + Luminespib; first compound 0.6325 µM)	relative viability (Dovitinib + Luminespib; first compound 2 µM)	relative viability (Dovitinib + Linsitinib; first compound 0.02 µM)	relative viability (Dovitinib + Linsitinib; first compound 0.06325 µM)	relative viability (Dovitinib + Linsitinib; first compound 0.2 µM)	relative viability (Dovitinib + Linsitinib; first compound 0.6325 µM)	relative viability (Dovitinib + Linsitinib; first compound 2 µM)	relative viability (Dovitinib + Lapatinib; first compound 0.02 µM)	relative viability (Dovitinib + Lapatinib; first compound 0.06325 µM)	relative viability (Dovitinib + Lapatinib; first compound 0.2 µM)	relative viability (Dovitinib + Lapatinib; first compound 0.6325 µM)	relative viability (Dovitinib + Lapatinib; first compound 2 µM)
LCLC-97TM1	0.77	0.486	0.561	0.59	0.544	0.953	0.746	0.831	0.801	0.701	0.216	0.21	0.201	0.152	0.213	0.835	0.752	1.02	0.602	1.03
HCC-15	0.658	0.68	0.741	0.656	0.711	0.233	0.237	0.238	0.297	0.303	0.952	0.831	0.938	0.879	0.941	0.853	0.857	0.91	0.874	0.845
NCI-H647	0.608	0.758	0.817	0.657	0.802	0.16	0.192	0.127	0.183	0.179	1.1	1.15	1.16	1.06	1.27	1.11	1.33	1.21	1.06	0.755
SW 1573	0.715	0.641	0.676	0.455	0.725	0.264	0.214	0.275	0.525	0.29	0.798	0.795	0.749	0.766	0.864	1.18	1.06	1.05	1.17	1.16
NCI-H1651	0.733	0.723	0.765	0.77	0.688	0.901	0.902	0.996	0.752	0.683	1.05	0.895	0.902	0.929	0.936	0.914	1	0.913	0.777	0.929
NCI-H1792	0.79	0.641	0.762	0.755	0.61	0.481	0.332	0.516	0.645	0.487	0.621	0.44	0.602	0.598	0.522	0.852	0.892	0.952	1.06	0.855
NCI-H2023	0.429	0.404	0.476	0.394	0.362	0.853	0.627	0.809	0.897	0.833	0.744	0.638	0.734	0.741	0.595	0.778	0.739	1.13	0.918	0.808
COR-L 105	0.722	0.637	0.649	0.659	0.784	0.77	0.84	0.78	0.82	0.81	1.04	0.912	0.834	0.855	0.961	0.39	0.367	0.341	0.327	0.407
NCI-H1734	0.655	0.632	0.687	0.575	0.55	0.177	0.231	0.185	0.182	0.198	0.961	0.862	0.843	0.902	0.833	1.11	1.02	1.05	1.09	0.503
NCI-H3122	1.02	0.959	1	0.876	0.915	0.0862	0.096	0.092	0.0979	0.112	1	0.95	1.07	1.1	0.991	0.996	1.01	0.967	1.05	1.02
CAL-12T	0.839	0.768	0.913	0.569	0.742	0.297	0.469	0.495	0.519	0.219	0.839	0.894	0.756	0.784	0.82	0.709	0.501	0.713	0.618	0.986
NCI-H2085	0.672	0.71	0.734	0.829	0.839	0.41	0.457	0.485	0.495	0.484	0.927	1.08	1.07	0.913	0.917	0.834	0.785	0.723	0.894	0.818
